Experimental data reported in the Bradley open melting point set (2014).
Where “and” joins values, the source holds several entries; their conditions need not be identical. Equal values may be shown once.

| SMILES | melting point |
| --- | --- |
| CCC(C)(C)Cl [2-Chloro-2-methylbutane] | -73 °C |
| CC(O)CN (stereo not drawn) [1-Aminopropan-2-ol] | -2 °C |
| O=[N+]([O-])c1ccc(Cl)c(Cl)c1 [3,4-dichloronitrobenzene] | 41 °C (2×) and 41.2 °C |
| COC(=O)c1ccccc1N [Methyl 2-aminobenzoate] | 24 °C |
| ClC(Cl)(Cl)Cl [carbon tetrachloride] | -23 °C (4×) and -22.9 °C |
| Cl/C=C/CCl [1,3-dichloropropene, cis trans] | -84 °C |
| CCCCI [1-Iodobutane] | -103 °C |
| O=c1n(CCO)c(=O)n(CCO)c(=O)n1CCO [1,3,5-tris(2-hydroxyethyl)cyanuric acid] | 138 °C |
| CC(C)(C)OOC(C)(C)C [Di-tert-butyl peroxide] | -40 °C |
| O=[N+]([O-])c1cccc(O)c1 [3-Nitrophenol] | 97 °C |
| CC(C)(C)OC(=O)N1CCNCC1 [1-boc-piperazine] | 46 °C |
| Cc1ccc(Cl)c(N)c1 [2-chloro-5-methylaniline] | 31 °C |
| O=C1CN2CCOC2(c2ccccc2F)c2cc(Br)ccc2N1 (stereo not drawn) [haloxazolam] | 185 °C |
| Cc1cccc2c1Cc1ccccc1-2 [1-Methylfluorene] | 85 °C |
| COc1ccc(CBr)c(Cl)c1 [2-chloro-4-methoxybenzyl bromide] | 57 °C |
| Sc1ccc(Cl)cc1 [4-chlorothiophenol] | 50 °C |
| O=C(Cl)C(Cl)(Cl)Cl [Trichloroacetyl chloride] | -146 °C |

| SMILES | melting point |
| --- | --- |
| CC#CCO [2-butyn-1-ol] | -2 °C |
| CN(C)c1ccc(/C=C(/C#N)c2nc(-c3ccc(Cl)cc3)cs2)cc1 | 134 °C |
| Cc1cc(C)c(Br)c(C)c1Br [2,4-dibromomesitylene] | 60 °C |
| O=[N+]([O-])c1ccc(O)c([N+](=O)[O-])c1 [2,4-dinitrophenol] | 107 °C |
| C#CCCCCCCCCCC [1-dodecyne] | -19 °C |
| Nc1cc(Br)ccc1Br [2,5-dibromoaniline] | 54 °C |
| Oc1ccc(Cl)cc1Cc1cc(Cl)ccc1O [2,2'-methylenebis(4-chlorophenol)] | 174 °C |
| CCC(=O)C1(c2cccc(O)c2)CCN(C)CC1 [ketobemidone] | 156 °C |
| CN1CCCN(C)C1=O [1,3-dimethyl-3,4,5,6-tetrahydro-2(1h)-pyrimidinone] | -23 °C |
| Cc1ccc(CC#N)cc1 [p-tolylacetonitrile] | 18 °C |
| C#CC1(O)CCCCC1 [1-ethynyl-1-cyclohexanol] | 33 °C |
| CP(C)(C)=O [trimethylphosphine oxide] | 141 °C |
| S=C=Nc1cccc2ccccc12 [1-Isothiocyanatonaphthalene] | 58 °C |
| O=C(Cl)C(Cl)(Cl)Cl [trichloroacetyl chloride] | -146 °C |
| Cc1c2ccccc2cc2ccccc12 [9-methylanthracene] | 78 °C and 80 °C |
| O=C(O)c1ccc(Cl)cc1Cl [2,4-dichlorobenzoic_acid] | 159 °C |

More lines, now with the values ahead:

| melting point | SMILES |
| --- | --- |
| 178 °C | O=C(O)c1ccc(C(=O)C(F)(F)F)cc1 [4-(trifluoroacetyl)benzoic acid] |
| 30 °C | Nc1ccccc1Br [o-bromoaniline] |
| 190 °C | CC=1CCCC(C)(C)C=1/C=CC(C)=CC=CC(C)=CC(=O)O [Alitretinoin] |
| 16 °C | CC(C)(C)c1ccc(N)cc1 [4-tert-butylaniline] |
| 10 °C | CCCCCCCCCCCCCCC [pentadecane] |
| 151 °C | NC(=O)OCC(COC(N)=O)c1ccccc1 [felbamate] |
| 289 °C | OB(O)c1cccc2c1oc1ccccc12 [dibenzofuran-4-boronic acid] |
| 6 °C | O=C(CO)c1ccccc1 [2-hydroxyacetophenone] |
| 240 °C | OB(O)c1ccc(Br)cc1F [4-bromo-2-fluorobenzeneboronic acid] |
| 143 °C | NC(=O)c1cccc([N+](=O)[O-])c1 [m-nitrobenzamide] |
| 98 °C | C[C@@H](O)[C@H](NC(=O)OCc1ccccc1)C(=O)O [N-benzyloxycarbonyl-l-threonine] |
| 150 °C | O=C[C@@H](O)[C@H](O)[C@@H](O)[C@@H](O)CO [L-Glucose] |
| 44 °C | CC(C)[C@@H]1CC[C@@H](C)C[C@H]1O [L-menthol] |
| 176 °C | C[C@]12CC[C@@H]3c4ccc(O)cc4CC[C@H]3[C@@H]1CC[C@@H]2O [Estradiol] |
| 143 °C | CC(C)(C)OC(=O)NC(CC(=O)O)c1ccccc1F (stereo not drawn) [3-(boc-amino)-3-(2-fluorophenyl)propionic acid] |
| 118 °C | Cc1ccc(C2(O)CCN(CCCC(=O)c3ccc(F)cc3)CC2)cc1 [moperone] |
| 176 °C | Nc1ccc(S(=O)(=O)c2ccc(N)cc2)cc1 [dapsone] |
| 20 °C | SCc1ccc(Cl)cc1 [4-chlorobenzyl mercaptan] |
| 250 °C | Cc1ccc(B(O)O)cc1[N+](=O)[O-] [4-methyl-3-nitrobenzeneboronic acid] |
| 202 °C | Nc1ccc(S(=O)(=O)Nc2nccs2)cc1 [4-Amino-N-(1,3-thiazol-2-yl)benzenesulfonamide] |

| melting point | SMILES |
| --- | --- |
| 99 °C | COC(=O)c1ccccc1NC(=O)c1ccccc1 [methyl 2-(benzoylamino)benzoate] |
| 119 °C | C=Cc1ccc(-c2ccccc2)cc1 [p-phenylstyrene] |
| 49 °C | O=C(O)CCc1ccccc1 [3-phenylpropionic acid] |
| 174 °C | NC(=O)Cc1ccc(O)cc1 [4-hydroxyphenylacetamide] |
| 135 °C | N#CC1(C#N)C=C(c2ccccc2)c2ccccc21 [3-phenyl-1H-indene-1,1-dicarbonitrile] |
| 188 °C | Nc1ccc(C(=O)O)cc1 [4-aminobenzoic acid] |
| -55 °C | CNCc1ccccc1 [N-benzylmethylamine] |
| 109 °C | N#Cc1ccccc1[N+](=O)[O-] [o-nitrobenzonitrile] |
| 223 °C | C[C@]12CCC(=O)C=C1CC[C@@H]1[C@@H]2C(O)C[C@@]2(C)[C@H]1CC[C@]2(O)C(=O)CO (stereo partly drawn) [11,17,21-Trihydroxypregn-4-ene-3,20-dione] |
| 20 °C | O=P(O)(O)O [orthophosphoric acid] |
| 121 °C | N#Cc1cc(Br)ccc1I [5-bromo-2-iodobenzonitrile] |
| 208 °C | CCCSc1ccc2[nH]c(NC(=O)OC)nc2c1 [albendazole] |
| 147 °C | NC1CONC1=O (stereo not drawn) [Cycloserine] |
| 38 °C | COc1ccc2c(c1)CC2O (stereo not drawn) [3-methoxybicyclo[4.2.0]octa-1,3,5-trien-7-ol] |
| 100 °C | CCc1c(C)[nH]c2ccc(N(C)C)cc12 [Medmain] |
| 118 °C | O=C(N[C@H](CO)C(=O)O)OCc1ccccc1 [N-benzyloxycarbonyl-D-serine] |
| 208 °C | NC(=O)c1cccc2ccccc12 [naphthalene-1-carboxamide] |
| 79 °C | Sc1nccs1 [2-mercaptothiazole] |
| 276 °C | O=C(O)c1cc(C(=O)O)c(C(=O)O)cc1C(=O)O [Pyromellitic Acid] |
| 71 °C | O=S(c1ccccc1)c1ccccc1 [diphenyl sulfoxide] |
